According to patent publication US20090105259A1, “Acyclic 1,4-Diamines and Uses Thereof” (priority 2005, published 2009):

Experiments:
TRPV4 channel receptors [1] = target: T1, TRPV4 channel receptors (Homo sapiens, UniProt Q9HBA0); assay: Ca2+ influx through TRPV4 channel receptors, Fura-2 fluorescence on FlexStation, human articular chondrocytes; format: cell-based; conditions: Fura-2, FlexStation
T1 construct: obtained using this method in human articular chondrocytes; endogenous in cells; host or cells: human articular chondrocytes
T1 sequence (Q9HBA0 whole entry): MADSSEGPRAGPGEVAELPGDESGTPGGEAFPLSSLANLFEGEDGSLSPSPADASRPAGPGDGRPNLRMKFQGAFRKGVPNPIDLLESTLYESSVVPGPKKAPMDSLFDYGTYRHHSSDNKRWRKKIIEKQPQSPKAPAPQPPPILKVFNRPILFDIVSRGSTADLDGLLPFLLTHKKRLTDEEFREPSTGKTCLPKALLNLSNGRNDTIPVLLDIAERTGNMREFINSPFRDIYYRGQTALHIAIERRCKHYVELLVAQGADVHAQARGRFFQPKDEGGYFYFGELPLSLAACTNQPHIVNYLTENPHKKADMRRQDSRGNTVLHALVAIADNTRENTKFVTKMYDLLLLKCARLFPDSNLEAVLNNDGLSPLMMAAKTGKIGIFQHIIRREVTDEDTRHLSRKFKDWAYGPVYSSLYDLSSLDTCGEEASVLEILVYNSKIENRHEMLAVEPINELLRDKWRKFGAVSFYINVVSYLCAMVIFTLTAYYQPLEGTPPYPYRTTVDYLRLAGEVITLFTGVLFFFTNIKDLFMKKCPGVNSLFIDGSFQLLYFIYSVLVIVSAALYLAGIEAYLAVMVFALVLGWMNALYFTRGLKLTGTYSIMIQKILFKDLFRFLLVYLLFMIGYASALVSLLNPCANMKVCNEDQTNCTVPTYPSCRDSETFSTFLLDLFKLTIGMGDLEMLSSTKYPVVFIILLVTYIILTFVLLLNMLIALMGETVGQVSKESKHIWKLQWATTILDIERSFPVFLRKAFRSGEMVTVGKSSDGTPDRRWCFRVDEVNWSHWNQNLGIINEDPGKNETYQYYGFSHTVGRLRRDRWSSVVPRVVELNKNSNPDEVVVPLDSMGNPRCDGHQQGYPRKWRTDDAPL
Description: (§1) Ca^2+ influx mediated through TRPV4 channel receptors can be measured using articular chondrocytes from such species as, but not limited to, human, rat, canine, rabbit, monkey, and bovine, using standard techniques in the art such as, but not limited to, Fura-2 (Invitrogen/Molecular Probes, Eugene, Oreg.) fluorescence using a FlexStation (manufactured by Molecular Devices, Sunnyvale, Calif.). Table 1 lists biological data for several representative compounds obtained using this method in bovine articular chondrocytes.
Table 2 lists biological data for several representative compounds obtained using this method in human articular chondrocytes.
(§2) All exemplary compounds of the present invention were assessed using at least one of the biological assays presented above. Compounds presented in the Examples had EC50 values of about 0.01 μM to 10 μM as measured by Flex Station using bovine and/or human articular chondrocytes.

TRPV4 channel receptors [2] = target: T2, TRPV4 channel receptors (Bos taurus, UniProt A0A8F4X677); assay: Ca2+ influx through TRPV4 channel receptors, Fura-2 fluorescence on FlexStation, bovine articular chondrocytes; format: cell-based; conditions: Fura-2, FlexStation
T2 construct: obtained using this method in bovine articular chondrocytes; endogenous in cells; host or cells: bovine articular chondrocytes
T2 sequence (A0A8F4X677 1-871): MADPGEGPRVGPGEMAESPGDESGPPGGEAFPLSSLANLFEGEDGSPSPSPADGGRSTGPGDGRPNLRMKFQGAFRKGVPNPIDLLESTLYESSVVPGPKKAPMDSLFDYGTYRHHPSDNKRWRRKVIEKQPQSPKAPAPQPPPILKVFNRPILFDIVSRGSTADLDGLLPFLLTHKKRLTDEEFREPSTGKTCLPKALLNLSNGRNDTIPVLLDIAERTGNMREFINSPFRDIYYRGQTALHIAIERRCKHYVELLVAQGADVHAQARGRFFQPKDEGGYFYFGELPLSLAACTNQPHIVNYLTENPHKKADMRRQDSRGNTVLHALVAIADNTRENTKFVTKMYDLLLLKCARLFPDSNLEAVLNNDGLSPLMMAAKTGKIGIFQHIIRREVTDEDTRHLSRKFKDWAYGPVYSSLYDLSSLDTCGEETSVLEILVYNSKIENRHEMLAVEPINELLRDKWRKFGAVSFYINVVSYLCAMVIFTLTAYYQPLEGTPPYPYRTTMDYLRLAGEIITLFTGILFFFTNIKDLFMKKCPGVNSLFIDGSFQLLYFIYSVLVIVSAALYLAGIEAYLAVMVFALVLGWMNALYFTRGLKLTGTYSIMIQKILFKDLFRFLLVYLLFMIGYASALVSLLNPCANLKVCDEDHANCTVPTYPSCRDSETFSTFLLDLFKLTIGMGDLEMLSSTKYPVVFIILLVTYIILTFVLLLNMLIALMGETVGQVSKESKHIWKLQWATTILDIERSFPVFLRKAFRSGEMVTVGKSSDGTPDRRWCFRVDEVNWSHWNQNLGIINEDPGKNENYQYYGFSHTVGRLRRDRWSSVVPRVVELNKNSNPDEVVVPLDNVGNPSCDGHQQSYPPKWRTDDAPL
Description: as §1, §2

EC50 (TRPV4 channel receptors [1])	EC50 (TRPV4 channel receptors [2])	SMILES
1000 to 10000 nM		CC(C)C[C@H](NC(=O)c1nc2ccccc2s1)C(=O)NCCCCNS(=O)(=O)c1ccc(F)cc1Cl [Example 50, N-((1S)-1-{[(4-{[(2-Chloro-4-fluorophenyl)sulfonyl]amino}butyl)amino]carbonyl}-3-methylbutyl)-1,3-benzothiazole-2-carboxamide]
30 to 90 nM	30 to 60 nM	CC(C)C[C@H](NC(=O)c1cc2ccccc2s1)C(=O)NCCCCNS(=O)(=O)c1ccc(Br)cc1Cl [Example 3, N-((1S)-1-{[(4-{[(4-Bromo-2-chlorophenyl)sulfonyl]amino}butyl)amino]carbonyl}-3-methylbutyl)-1-benzothiophene-2-carboxamide]
100 to 1000 nM		Cc1c(C(=O)N[C@@H](CC(C)C)C(=O)NCCCCNS(=O)(=O)c2ccc(Cl)cc2Cl)oc2cccnc12 [Example 6, N-((1S)-1-{[(4-{[(2,4-Dichlorophenyl)sulfonyl]amino}butyl)amino]carbonyl}-3-methylbutyl)-3-methylfuro[3,2-b]pyridine-2-carboxamide]
	70 to 100 nM	CC(C)C[C@H](NC(=O)c1cc2ccccc2s1)C(=O)NCCCCNS(=O)(=O)c1ccc(F)cc1Cl [Example 5, N-((1S)-1-{[(4-{[(2-Chloro-4-fluorophenyl)sulfonyl]amino}butyl)amino]carbonyl}-3-methylbutyl)-1-benzothiophene-2-carboxamide]
